Test results taken from patent US20120083522A1, “MODULATION OF INFLAMMATORY RESPONSES BY FACTOR XI” (Isis Pharmaceuitcals, inc., priority 2009, published 2012).
In the oligonucleotide strings, read from the 5' end, every base follows the letter of its sugar. An asterisk marks phosphorothioate; unmarked linkages are phosphodiester. Other units and linkages are bracketed, terminal groups are in braces. A string of capitals states the bases alone. e = 2'-O-(2-methoxyethyl) (MOE); [5mC] = 5-methylcytosine; d = 2'-deoxy (DNA)

Experiments:
human Factor XI mRNA = assay: Dose-dependent inhibition and IC50 in HepG2 cells, microwalk gapmers, electroporation (Example 16); assay type: cell-based
Protocol: These gapmers were tested at various doses in HepG2 cells. Cells were plated at a density of 20,000 cells per well and transfected using electroporation with 375 nM, 750 nM, 1,500 nM, 3,000 nM, 6,000 nM and 12,000 nM concentrations of antisense oligonucleotide, as specified in Table 54. After a treatment period of approximately 16 hours, RNA was isolated from the cells and Factor XI mRNA levels were measured by quantitative real-time PCR. Human Factor XI primer probe set RTS 2966 was used to measure mRNA levels. Factor XI mRNA levels were adjusted according to total RNA content, as measured by RIBOGREEN. Results are presented as percent inhibition of Factor XI, relative to untreated control cells.
ISIS 416850, ISIS 416858, ISIS 445522, and ISIS 445531 (see Table 52 above) were re-tested in vitro along with the microwalk gapmers under the same conditions described above.
The chimeric antisense oligonucleotides in Table 53 were designed as 3-8-3 MOE, 4-8-4 MOE, 2-10-2 MOE, 3-10-3 MOE, or 4-10-4 MOE gapmers. The 3-8-3 gapmer is 14 nucleotides in length, wherein the central gap segment is comprised of eight 2′-deoxynucleotides and is flanked on both sides (in the 5′ and 3′ directions) by wings comprising three nucleotides each. The 4-8-4 gapmer is 16 nucleotides in length, wherein the central gap segment is comprised of eight 2′-deoxynucleotides and is flanked on both sides (in the 5′ and 3′ directions) by wings comprising four nucleotides each. The 2-10-2 gapmer is 14 nucleotides in length, wherein the central gap segment is comprised of ten 2′-deoxynucleotides and is flanked on both sides (in the 5′ and 3′ directions) by wings comprising two nucleotides each. The 3-10-3 gapmer is 16 nucleotides in length, wherein the central gap segment is comprised of ten 2′-deoxynucleotides and is flanked on both sides (in the 5′ and 3′ directions) by wings comprising three nucleotides each. The 4-10-4 gapmer is 18 nucleotides in length, wherein the central gap segment is comprised of ten 2′-deoxynucleotides and is flanked on both sides (in the 5′ and 3′ directions) by wings comprising four nucleotides each. For each of the motifs (3-8-3, 4-8-4, 2-10-2, 3-10-3, and 4-10-4), each nucleotide in the 5′ wing segment and each nucleotide in the 3′ wing segment has a 2′-MOE modification. The internucleoside linkages throughout each gapmer are phosphorothioate (P═S) linkages. All cytidine residues throughout each gapmer are 5-methylcytidines. “Human Target start site” indicates the 5′-most nucleotide to which the gapmer is targeted in the human sequence. “Human Target stop site” indicates the 3′-most nucleotide to which the gapmer is targeted in the human sequence. Each gapmer listed in Table 53 is targeted to SEQ ID NO: 1 (GENBANK Accession No. NM_000128.3). Each gapmer is Table 53 is also fully cross-reactive with the rhesus monkey Factor XI gene sequence, designated herein as SEQ ID NO: 274 (exons 1-15 GENBANK Accession No. NW—001118167.1). ‘Rhesus monkey start site’ indicates the 5′-most nucleotide to which the gapmer is targeted in the rhesus monkey sequence. ‘Rhesus monkey stop site’ indicates the 3′-most nucleotide to which the gapmer is targeted to the rhesus monkey sequence.
The first two listed gapmers in Table 54 are the original gapmers (ISIS 416850 and ISIS 416858) from which the remaining gapmers were designed via microwalk and are designated by an asterisk.

[1] = tested on: DSS-induced colitis model; assay: Colitis Study A: DSS-induced colitis, body weight and colon length (Example 12); assay type: in vivo, Swiss Webb mice; conditions: for colon length (in words): FIG. 7C
Protocol: The effect of antisense oligonucleotide inhibition of Factor XI and its role in ameliorating colitis was evaluated in a dextran sulfate sodium (DSS)-induced colitis model. Administration of DSS to animals is a well known method to induce […] and has been previously described by Okayasu et al. (Gastroenterology, 1990, 98:694-702), Cooper et al. (Lab Invest, 1993, 69:238-249) and Dieleman et al. (Clin Exp Immunol, 1998, 114:385-391).
In groups of 8 Swiss Webb mice, 20 mg/kg of ISIS 404071 or ISIS 403102 were injected subcutaneously twice a week for 3 weeks. Two control groups of 8 mice each were injected with PBS twice a week for 3 weeks. After the oligonucleotide treatments, 4% DSS in water was administered ad libitum for 6 days to the experimental groups and one PBS control group.
Mice in all groups were weighed at day 0. Mice were sacrificed at the end of the study on day 7 after DSS was administered and their body weights and colon lengths were measured. Results are presented in Table 24 (expressed as a percentage of the PBS control) and FIG. 7.
Colon length was assessed in the DSS-induced colitis mice.

P-selectin = assay: Colitis Study C: serum P-selectin; assay type: in vivo, mice
Protocol: The effect of antisense inhibition of Factor XI on serum P-selectin levels was evaluated in this study. DSS administration led to increase in P-selectin levels which was reduced by treatment with ISIS 404071.

murine Factor XI mRNA = assay: Colitis Study B: Factor XI mRNA in the liver; assay type: in vivo, Swiss Webb mice; conditions: DSS-induced colitis, day 7, 20 mg/kg s.c. twice a week for 3 weeks, percent change compared to the PBS control
Protocol: In a first group of 8 Swiss Webb mice, 20 mg/kg of ISIS 404071 was injected subcutaneously twice a week for 3 weeks. In a second group of 8 Swiss Webb mice, 20 mg/kg of ISIS 404057 was subcutaneously injected twice a week for 3 weeks. In a third control group of 8 Swiss Webb mice, 20 mg/kg of ISISI 421208 was injected subcutaneously twice a week for 3 weeks. Two control groups of 8 mice each were injected with PBS twice a week for 3 weeks. After the oligonucleotide treatment, 4% DSS in water was administered ad libitum for 6 days to all the experimental groups and one PBS control group.
Mice in all groups were weighed at day 0 and daily after administration of DSS. Mice were sacrificed at the end of the study on day 7 after DSS was administered, their livers and colons were harvested for RNA analysis, and their body weights and colon lengths were measured.
RT-PCR analysis of Factor XI mRNA was performed. As presented in Table 27 and FIG. 10, antisense oligonucleotides targeting Factor XI achieved statistically significant dose-dependent reduction of murine Factor XI over the PBS control in the liver. All the measurements are normalized to cyclophilin.
All the results in Table 27 are expressed as percent change compared to the PBS control.

[2] = DSS-induced colitis, day 7, 20 mg/kg s.c. twice a week for 3 weeks, expressed as a percentage of the PBS control

Row | Substance | percent inhibition of Factor XI mRNA (human Factor XI mRNA; electroporation, 375 nM) [%] | percent inhibition of Factor XI mRNA (human Factor XI mRNA; electroporation, 750 nM) [%] | percent inhibition of Factor XI mRNA (human Factor XI mRNA; electroporation, 1,500 nM) [%] | percent inhibition of Factor XI mRNA (human Factor XI mRNA; electroporation, 3,000 nM) [%] | percent inhibition of Factor XI mRNA (human Factor XI mRNA; electroporation, 6,000 nM) [%] | percent inhibition of Factor XI mRNA (human Factor XI mRNA; electroporation, 12,000 nM) [%] | body weight (in words) ([1]; Colitis Study A, FIG. 7A/7B) | colon length (in words) ([1]; Colitis Study A, listed as Factor XI ASO) | colon length (in words) ([1]; Colitis Study A, listed as Factor XI oligonucleotide) | Body weight change [1, 2] [%] | Colon length change [1, 2] [%] | P-selectin levels (in words) (P-selectin) | P-selectin (P-selectin; DSS-induced colitis mice) [ng/mL] | Liver Factor XI mRNA (murine Factor XI mRNA) [%]
1 | 416850 (antisense TGCACAGTTTCTGGCAGGCC; 5-10-5 gapmer, wing sugar chemistry not given here, further chemistry not given here) [compound 416850] | 40 | 59 | 69 | 87 | 90 | 95 |  |  |  |  |  |  |  | 
2 | 416858 (antisense ACGGCATTGGTGCACAGTTT; 5-10-5 gapmer, wing sugar chemistry not given here, further chemistry not given here) [compound 416858] | 31 | 35 | 78 | 85 | 90 | 93 |  |  |  |  |  |  |  | 
3 | 445522 (antisense eG*e[5mC]*eA*e[5mC]*eA*dG*dT*dT*dT*d[5mC]*dT*dG*dG*e[5mC]*eA*eG*eG*e[5mC]) [compound 445522] | 59 | 71 | 83 | 82 | 81 | 92 |  |  |  |  |  |  |  | 
4 | 445531 (antisense eG*eG*e[5mC]*eA*eT*dT*dG*dG*dT*dG*d[5mC]*dA*d[5mC]*eA*eG*eT*eT*eT) [compound 445531] | 44 | 64 | 78 | 86 | 91 | 93 |  |  |  |  |  |  |  | 
5 | TGGTAATCCACTTTCAGAGG (eT*eG*eG*eT*eA*dA*dT*d[5mC]*d[5mC]*dA*d[5mC]*dT*dT*dT*d[5mC]*eA*eG*eA*eG*eG) [ISIS 404071, 5-10-5 MOE gapmer targeting murine Factor XI, target start site 869] |  |  |  |  |  |  | did not have any significant change in body weight | had no significant change in colon length | decreased the amount of colon shortening | −2 | −13 | reduced | 83 | −75
